In patent US20010046987A1, “Oxazolidinones having a sulfoximine functionality” (priority 1999, published 2001):
In brackets after ≈: the same amount, converted by molar mass.

Tests used:
Assay type in all cases: cell-based
[1] = tested on: Streptococcus pneumoniae; experiment: MIC by agar dilution, SPNE 9912; settings: for Antibacterial Activity Minimum Inhibitory Concentration SPNE 9912: strain SPNE 9912; for MIC: Streptococcus pneumoniae, strain SPNE 9912, read-out: Antibacterial Activity Minimum Inhibitory Concentration SPNE 9912
Description: (§1) The in vitro activity of compounds of this invention can be assessed by standard testing procedures such as the determination of minimum inhibitory concentration (MIC) by agar dilution as described in “Approved Standard.

[2] = tested on: H. influenzae; experiment: MIC by agar dilution, HINF 30063; settings: for Antibacterial Activity Minimum Inhibitory Concentration HINF 30063: strain HINF 30063; for MIC: Haemophilus influenzae, strain HINF 30063, read-out: Antibacterial Activity Minimum Inhibitory Concentration HINF 30063
Description: as §1

[3] = tested on: Enterococcus faecium; experiment: MIC by agar dilution, EFAE 12712; settings: for Antibacterial Activity Minimum Inhibitory Concentration EFAE 12712: strain EFAE 12712; for MIC: Enterococcus faecium, strain EFAE 12712, read-out: Antibacterial Activity Minimum Inhibitory Concentration EFAE 12712
Description: as §1

[4] = tested on: Streptococcus pyogenes; experiment: MIC by agar dilution, SPYO 152; settings: for Antibacterial Activity Minimum Inhibitory Concentration SPYO 152: strain SPYO 152; for MIC: Streptococcus pyogenes, strain SPYO 152, read-out: Antibacterial Activity Minimum Inhibitory Concentration SPYO 152
Description: as §1

[5] = tested on: Enterococcus faecalis; experiment: MIC by agar dilution, EFAE 9217; settings: for Antibacterial Activity Minimum Inhibitory Concentration EFAE 9217: strain EFAE 9217; for MIC: Enterococcus faecalis, strain EFAE 9217, read-out: Antibacterial Activity Minimum Inhibitory Concentration EFAE 9217
Description: as §1

[6] = tested on: Staphylococcus epidermidis; experiment: MIC by agar dilution, SEPI 30593; settings: for Antibacterial Activity Minimum Inhibitory Concentration SEPI 30593: strain SEPI 30593; for MIC: Staphylococcus epidermidis, strain SEPI 30593, read-out: Antibacterial Activity Minimum Inhibitory Concentration SEPI 30593
Description: as §1

[7] = tested on: Staphylococcus aureus; experiment: MIC by agar dilution, SAUR 9213; settings: for Antibacterial Activity Minimum Inhibitory Concentration SAUR 9213: strain SAUR 9213; for MIC: Staphylococcus aureus, strain SAUR 9213, read-out: Antibacterial Activity Minimum Inhibitory Concentration SAUR 9213
Description: as §1

[8] = tested on: Moraxella catarrhalis; experiment: MIC by agar dilution, MCAT 30607; settings: for Antibacterial Activity Minimum Inhibitory Concentration MCAT 30607: strain MCAT 30607; for MIC: Moraxella catarrhalis, strain MCAT 30607, read-out: Antibacterial Activity Minimum Inhibitory Concentration MCAT 30607
Description: as §1

MIC [1]	MIC [2]	MIC [3]	MIC [4]	MIC [5]	MIC [6]	MIC [7]	MIC [8]	Structure (SMILES)	Antibacterial Activity Minimum Inhibitory Concentration SPNE 9912 [1]	Antibacterial Activity Minimum Inhibitory Concentration HINF 30063 [2]	Antibacterial Activity Minimum Inhibitory Concentration EFAE 12712 [3]	Antibacterial Activity Minimum Inhibitory Concentration SPYO 152 [4]	Antibacterial Activity Minimum Inhibitory Concentration EFAE 9217 [5]	Antibacterial Activity Minimum Inhibitory Concentration SEPI 30593 [6]	Antibacterial Activity Minimum Inhibitory Concentration SAUR 9213 [7]	Antibacterial Activity Minimum Inhibitory Concentration MCAT 30607 [8]
–	–	–	–	–	–	–	–	CC(=O)NC[C@H]1CN(c2ccc(C3CCS(=N)(=O)CC3)c(F)c2)C(=O)O1 (single isomer, unassigned) [Example 4]	1 µg/mL	8 µg/mL	4 µg/mL	1 µg/mL	2 µg/mL	2 µg/mL	16 µg/mL	4 µg/mL
–	–	–	–	–	–	–	–	CC(=O)NC[C@H]1CN(c2ccc(C3CCS(=N)(=O)CC3)c(F)c2)C(=O)O1 (single isomer, unassigned) [Example 8]	0.5 µg/mL	8 µg/mL	2 µg/mL	1 µg/mL	2 µg/mL	1 µg/mL	8 µg/mL	2 µg/mL
–	–	–	–	–	–	–	–	CC(=S)NC[C@H]1CN(c2ccc(C3CCS(=N)(=O)CC3)c(F)c2)C(=O)O1 (single isomer, unassigned) [Example 9]	0.25 µg/mL	2 µg/mL	0.5 µg/mL	0.25 µg/mL	0.5 µg/mL	0.125 µg/mL	0.5 µg/mL	2 µg/mL
–	–	–	–	–	–	–	–	CCC(=S)NC[C@H]1CN(c2ccc(C3CCS(=N)(=O)CC3)c(F)c2)C(=O)O1 (single isomer, unassigned) [Example 10]	0.25 µg/mL	2 µg/mL	0.5 µg/mL	0.25 µg/mL	0.5 µg/mL	0.25 µg/mL	1 µg/mL	2 µg/mL
–	–	–	–	–	–	–	–	N=S1(=O)CCC(c2ccc(N3C[C@H](CNC(=S)C4CC4)OC3=O)cc2F)CC1 (single isomer, unassigned) [Example 11]	0.25 µg/mL	4 µg/mL	0.5 µg/mL	0.25 µg/mL	0.5 µg/mL	0.5 µg/mL	1 µg/mL	1 µg/mL
–	–	–	–	–	–	–	–	CC(=O)N=S1(=O)CCC(c2ccc(N3C[C@H](CNC(C)=O)OC3=O)cc2F)CC1 (single isomer, unassigned) [Example 12]	0.5 µg/mL	16 µg/mL	–	1 µg/mL	2 µg/mL	1 µg/mL	8 µg/mL	8 µg/mL
–	–	–	–	–	–	–	–	CCC(=S)NC[C@H]1CN(c2ccc(C3CCS(=O)(=NC(C)=O)CC3)c(F)c2)C(=O)O1 (single isomer, unassigned) [Example 14]	0.25 µg/mL	4 µg/mL	1 µg/mL	0.25 µg/mL	0.5 µg/mL	0.5 µg/mL	1 µg/mL	2 µg/mL
–	–	–	–	–	–	–	–	CCOC(=O)CN=S1(=O)CCC(c2ccc(N3C[C@H](CNC(=S)CC)OC3=O)cc2F)CC1 (single isomer, unassigned) [Example 20]	4 µg/mL	8 µg/mL	1 µg/mL	16 µg/mL	1 µg/mL	1 µg/mL	2 µg/mL	4 µg/mL
–	–	–	–	–	–	–	–	CCC(=S)NC[C@H]1CN(c2ccc(C3CCS(=O)(=NCCO)CC3)c(F)c2)C(=O)O1 (single isomer, unassigned) [Example 24]	0.25 µg/mL	4 µg/mL	1 µg/mL	0.5 µg/mL	1 µg/mL	0.5 µg/mL	2 µg/mL	4 µg/mL
–	–	–	–	–	–	–	–	COC(=O)N=S1(=O)CCC(c2ccc(N3C[C@H](CNC(=S)C4CC4)OC3=O)cc2F)CC1 (single isomer, unassigned) [Example 30]	0.125 µg/mL	4 µg/mL	0.5 µg/mL	0.5 µg/mL	0.5 µg/mL	0.5 µg/mL	1 µg/mL	0.5 µg/mL
–	–	–	–	–	–	–	–	CC(=O)NC[C@H]1CN(c2ccc(C3CCS(=O)(=NC(=O)OCc4ccccc4)CC3)c(F)c2)C(=O)O1 (single isomer, unassigned) [Example 33]	1 µg/mL	64 µg/mL	4 µg/mL	1 µg/mL	4 µg/mL	2 µg/mL	8 µg/mL	16 µg/mL
–	–	–	–	–	–	–	–	CC(=O)NC[C@H]1CN(c2ccc(C3CCS(=O)(=NC(=O)NCc4ccccc4)CC3)c(F)c2)C(=O)O1 (single isomer, unassigned) [Example 34]	1 µg/mL	32 µg/mL	4 µg/mL	2 µg/mL	4 µg/mL	2 µg/mL	16 µg/mL	16 µg/mL
–	–	–	–	–	–	–	–	CC(=S)NC[C@H]1CN(c2ccc(N3CCS(=N)(=O)CC3)c(F)c2)C(=O)O1 [Example 1, N-({(5S)-3-[3-Fluoro-4-(1-imino-1-oxido-1λ^4,4-thiazinan-4-yl)phenyl]-2-oxo-1,3-oxazolidin-5-yl}methyl)ethanethioamide]	0.25 µg/mL	4 µg/mL	1 µg/mL	0.25 µg/mL	1 µg/mL	0.5 µg/mL	1 µg/mL	2 µg/mL
0.25 µg/mL (≈ 0.585 µM)	8 µg/mL (≈ 18.7 µM)	1 µg/mL (≈ 2.34 µM)	0.25 µg/mL (≈ 0.585 µM)	0.5 µg/mL (≈ 1.17 µM)	0.5 µg/mL (≈ 1.17 µM)	1 µg/mL (≈ 2.34 µM)	2 µg/mL (≈ 4.68 µM)	CCC(=S)NC[C@H]1CN(c2ccc([C@H]3CC[S@+2]([O-])([N-]C)CC3)c(F)c2)C(=O)O1 [Example 13, N-({(5S)-3-[3-Fluoro-4-[1-(methylimino)-1-oxidohexahydro-1λ^4-thiopyran-4-yl]phenyl]-2-oxo-1,3-oxazolidin-5-yl}methyl)propanethioamide, Z-isomer]	–	–	–	–	–	–	–	–
0.25 µg/mL (≈ 0.583 µM)	4 µg/mL (≈ 9.33 µM)	1 µg/mL (≈ 2.33 µM)	0.5 µg/mL (≈ 1.17 µM)	1 µg/mL (≈ 2.33 µM)	0.5 µg/mL (≈ 1.17 µM)	2 µg/mL (≈ 4.67 µM)	4 µg/mL (≈ 9.33 µM)	CCC(=S)NC[C@H]1CN(c2ccc(N3CCS(=O)(=NC)CC3)c(F)c2)C(=O)O1 [Example 25, N-[((5S)-3-{3-Fluoro-4-[1-(methylimino)-1-oxido-1λ^4,4-thiazinan-4-yl]phenyl}-2-oxo-1,3-oxazolidin-5-yl)methyl]propanethioamide]	–	–	–	–	–	–	–	–
